In patent publication US9777017B2, “Tricyclic fused thiophene derivatives as JAK inhibitors” (Incyte Corporation, priority 2012, dated 2017):

What was measured:
Assay type in all cases: biochemical
human JAK1 [1] = target: human JAK1 (Homo sapiens, UniProt P23458); assay: In vitro JAK kinase assay (HTRF, phosphorylation of a biotinylated peptide), JAK1; details: 1 mM ATP
Procedure: (§1) Compounds herein were tested for inhibitory activity of JAK targets according to the following in vitro assay described in Park et al., Analytical Biochemistry 1999, 269, 94-104. The catalytic domains of human JAK1 (a.a. 837-1142), JAK2 (a.a. 828-1132) and JAK3 (a.a. 781-1124) were expressed using baculovirus in insect cells and purified. The catalytic activity of JAK1, JAK2 or JAK3 was assayed by measuring the phosphorylation of a biotinylated peptide. The phosphorylated peptide was detected by homogenous time resolved fluorescence (HTRF). IC50s of compounds were measured for each kinase in the 40 μL reactions that contain the enzyme, ATP and 500 nM peptide in 50 mM Tris (pH 7.8) buffer with 100 mM NaCl, 5 mM DTT, and 0.1 mg/mL (0.01%) BSA. For the 1 mM IC50 measurements, ATP concentration in the reactions was 1 mM. Reactions were carried out at room temperature for 1 hour and then stopped with 20 μL 45 mM EDTA, 300 nM SA-APC, 6 nM Eu-Py20 in assay buffer (Perkin Elmer, Boston, Mass.). Binding to the Europium labeled antibody took place for 40 minutes and HTRF signal was measured on a PHERA star plate reader (BMG, Cary, N.C.). The Example compounds were each tested in the Example A assay (see Table 1 for data for the compounds of the examples as tested by the assay of Example A at 1 mM ATP).

human JAK1 [2] = assay: as above; details: ratio of IC50s, 1 mM ATP
Procedure: as §1

human JAK2 = human JAK2 (Homo sapiens (Human), UniProt O60674); assay: In vitro JAK kinase assay (HTRF, phosphorylation of a biotinylated peptide), JAK2; design: key to JAK2 IC50 (nM): +indicates an IC50 of ≦100 nM; ++indicates an IC50 of ≦1000 nM; +++indicates an IC50 of ≦2000 nM; ++++indicates an IC50 of >2000 nM; +++++indicates that the IC50 was greater than the highest concentration tested; details: 1 mM ATP
Procedure: as §1

Chain of human JAK2 (O60674 828-1132): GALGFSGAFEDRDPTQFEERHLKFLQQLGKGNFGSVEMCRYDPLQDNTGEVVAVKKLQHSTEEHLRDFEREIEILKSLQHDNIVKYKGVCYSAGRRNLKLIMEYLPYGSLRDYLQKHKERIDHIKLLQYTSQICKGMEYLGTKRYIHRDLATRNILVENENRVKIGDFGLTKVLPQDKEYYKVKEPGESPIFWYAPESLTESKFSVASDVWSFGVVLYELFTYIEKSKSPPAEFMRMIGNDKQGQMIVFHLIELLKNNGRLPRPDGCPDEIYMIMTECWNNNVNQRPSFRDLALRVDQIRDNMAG

IC50 (human JAK1 [1]) | JAK2/JAK1 (human JAK1 [2]) | IC50 (human JAK2) | JAK2 IC50 (nM) (human JAK2) | SMILES
≤ 2 µM | >6 |  | +++++ | C[C@@H](O)c1nc2cnc3ccsc3c2n1[C@H]1CC[C@@H](n2cncn2)CC1 [Example 6, (1R)-1-{1-[cis-4-(1H-1,2,4-Triazol-1-yl)cyclohexyl]-1H-imidazo[4,5-d]thieno[3,2-b]pyridin-2-yl}ethanol]
≤ 0.1 µM | >10 | ≤ 2 µM |  | CC(=O)NC[C@H]1CC[C@H](n2c([C@@H](C)O)nc3cnc4ccsc4c32)CC1 [Example 79, N-[(trans-4-{2-[(1R)-1-Hydroxyethyl]-1H-imidazo[4,5-b]thieno[3,2-b]pyridin-1-yl}cyclohexyl)methyl]acetamide]
≤ 0.1 µM | >10 | ≤ 1 µM |  | C[C@@H](O)c1nc2cnc3ccsc3c2n1[C@H]1CC[C@H](CCC#N)CC1 [Example 8, 3-(trans-4-{2-[(1R)-1-Hydroxyethyl]-1H-imidazo[4,5-d]thieno[3,2-b]pyridin-1-yl}cyclohexyl)propane nitrile]
≤ 0.1 µM | >10 | ≤ 2 µM |  | C[C@@H](O)c1nc2cnc3ccsc3c2n1[C@H]1CC[C@H](NCC(F)(F)F)CC1 [Example 4, (1R)-1-(1-{trans-4-[(2,2,2-Trifluoroethyl)amino]cyclohexyl}-1H-imidazo[4,5-d]thieno[3,2-b]pyridin-2-yl)ethanol]
≤ 0.1 µM | >10 | > 2 µM |  | C[C@@H](O)c1nc2cnc3ccsc3c2n1C1CCC(O)(CC#N)CC1 (single isomer, unassigned) [24 (first peak)]
≤ 1 µM | >10 |  | +++++ | CC(CC(=O)N1CCC[C@H](n2c([C@@H](C)O)nc3cnc4ccsc4c32)C1)c1ccccc1 (stereo partly drawn) [Example 55, (1R)-1-{1-[(3S)-1-(3-Phenylbutanoyl)piperidin-3-yl]-1H-imidazo[4,5-d]thieno[3,2-b]pyridin-2-yl}ethanol]
≤ 1 µM | >10 |  | +++++ | C[C@@H](O)c1nc2cnc3ccsc3c2n1[C@H]1CC[C@@H](CC#N)C1.O=C(O)C(F)(F)F [Example 49, ((4R,3S)-3-{2-[(1R)-1-Hydroxyethyl]-1H-imidazo[4,5-d]thieno[3,2-b]pyridin-1-yl}cyclopentyl)acetonitrile trifluoroacetate]
≤ 0.1 µM | >10 | ≤ 1 µM |  | N#CC[C@H]1CC[C@H](n2c(C3CC3)nc3cnc4ccsc4c32)CC1 [Example 26, [trans-4-(2-Cyclopropyl-1H-imidazo[4,5-b]thieno[3,2-b]pyridin-1-yl)cyclohexyl]acetonitrile]
≤ 1 µM | >10 | > 2 µM |  | CNC(C)c1nc2cnc3ccsc3c2n1[C@H]1CC[C@H](CC#N)OC1 (stereo partly drawn) [Example 70, ((2R,5S)-5-{2-[1-(Methylamino)ethyl]-1H-imidazo[4,5-d]thieno[3,2-b]pyridin-1-yl}tetrahydro-2H-pyran-2-yl)acetonitrile]
≤ 0.1 µM | >10 | ≤ 2 µM |  | CC(C)OC(=O)NC[C@H]1CC[C@H](n2c([C@@H](C)O)nc3cnc4ccsc4c32)CO1 [Example 76, Isopropyl [((2R,5S)-5-{2-[(1R)-1-hydroxyethyl]-1H-imidazo[4,5-d]thieno[3,2-b]pyridin-1-yl}tetrahydro-2H-pyran-2-yl)methyl]carbamate]
≤ 0.1 µM | >10 | ≤ 1 µM |  | CC(F)c1nc2cnc3ccsc3c2n1[C@H]1CC[C@H](CC#N)OC1 (stereo partly drawn) [Example 71, {(2R,5S)-5-[2-(1-Fluoroethyl)-1H-imidazo[4,5-d]thieno[3,2-b]pyridin-1-yl]tetrahydro-2H-pyran-2-yl}acetonitrile]

SMILES | IC50 (human JAK1 [1]) | JAK2/JAK1 (human JAK1 [2]) | IC50 (human JAK2) | JAK2 IC50 (nM) (human JAK2)
C[C@H](O)c1nc2cnc3ccsc3c2n1[C@H]1CC[C@H](CC#N)OC1 [Example 45, ((2R,5S)-5-{2-[(1S)-1-Hydroxyethyl]-1H-imidazo[4,5-d]thieno[3,2-b]pyridin-1-yl}tetrahydro-2H-pyran-2-yl)acetonitrile] | ≤ 0.1 µM | >10 | > 2 µM | 
